Experimental data: patent publication US5877210A, “Phosphotyrosine phosphatase inhibitors or phosphotyrosine kinase activators for controlling cellular proliferation” (priority 1995, dated 1999)
Entries after “also recorded” stand apart in the source; their conditions may differ. Read-outs that look alike come from different tables or passages of the source.

Assays:
i.p. B16 murine melanoma = format: in vivo
Experimental: The cumulative dose MTD of 54 mg/kg was similar to the 60 mg/kg cumulative MTD observed in the last M109 experiment.

[1] = system: i.p. M109 murine lung carcinoma; test: In vivo antitumor test, M109; conditions: for Max. % T/C: qd 1→5, ip
Experimental: The compound pV(phen) was tested for its antitumor activity in vivo. A summary of the antitumor test results is shown below in Table 13. In the i.p. M109 murine lung carcinoma model (Experiment No. 330; Table 13), consecutive daily i.p. injections each day from day 1 to 5 were effective in achieving an active result. […] A maximum T/C of 143%, consistent with the first result, was obtained.

PP1 = test: Serine/threonine phosphatase PP1 inhibition; format: biochemical; conditions: vs CD45 and PTP1B
[2] = system: MDAMB-453 breast carcinoma cells; test: Clonogenic assay in methylcellulose; format: cell-based; conditions: dose as high as 100 μM BMLOV
Experimental: The selective cytotoxicity of BMLOV was examined in clonogenic assays. Cells were grown in methylcellulose media and the number of colonies formed after seven days of treatment with various doses of the drug were determined. The clonogenic assays were performed with six replicates for each treatment as described [F. M. Uckun et al., J. Exp. Med. 163:347-368 (1986); F. M. Uckun & J. A. Ledbetter, Proc. Natl. Acad. Sci. USA 85:8603-8607 (1988)). The data is given plus/minus the standard error of the mean.

HL-60 cells = test: Anti-phosphotyrosine immunoblot; format: cell-based, human
Jurkat = test: [3H]thymidine incorporation assay; format: cell-based, human; conditions: for [3H]cpm incorporation: seven days
Experimental: (§1) For each cell type, the cells were passaged uniformly for all drug doses given during the seven-day period. The cells were then pulsed for six hours with [^3 H]thymidine. The extent of DNA synthesis was then determined by counting the radioactivity incorporated into the cells.
(§2) For assays of cellular proliferation, cells were grown five days in the presence of the indicated concentrations of BMLOV, pulsed 6 hr with [^3 H]-thymidine (New England Nuclear, Boston, Mass.), and counted in a liquid scintillation counter. Human peripheral blood lymphocytes (PBL) from normal volunteers were isolated from lymphocyte separation medium (Litton Bionetics, Kensington, Md.) by density gradient centrifugation. Monocytes were depleted from PBL by two rounds of plastic absorption for 30 minutes at 37° C. B cells were enriched for by negative selection using complement plus monoclonal antibodies to CD2, CD3, CD4, and CD8 for complement depletion. Clonogenic assays of colony formation in methylcellulose medium were performed as previously described (F. M. Uckun et al. (1992), supra).

THP-1 = test: [3H]thymidine incorporation assay; format: cell-based, human; conditions: for [3H]cpm incorporation: seven days
Experimental: as §1, §2

[3] = system: normal peripheral B cells; test: Normal peripheral B cell [3H]-thymidine incorporation; format: cell-based, human
Experimental: In the experiment reported in Table 4, monoclonal antibodies to CD20 and CD40 were used to stimulate proliferation. Peripheral B cells were isolated from two healthy human volunteers. The cells were stimulated as listed in Table 4 and the effects of various doses of BMLOV on proliferation, as measured by [^3 H]-thymidine incorporation, were determined. BMLOV was able to inhibit proliferation induced by CD20, CD40, IL-4 and PMA in the various combinations tested. The cells from donor 2 were more sensitive, indicating some variation among individuals in their sensitivity to the drug.
Stimulation of CD20 was via monoclonal antibody 1F5 and stimulation of CD40 was via monoclonal antibody G28-5.
as §2

[4] = system: murine B cell lymphoma A20 cells; test: Anti-phosphotyrosine immunoblot; format: cell-based; conditions: 16 hr
[5] = system: normal peripheral blood T cells
Experimental: IL-2Rα expression was analyzed by flow cytometry after staining the cells with fluorescein-labeled anti-CD25. Cells not receiving any treatment are shown by the shaded profile, (- - -) 25 μM BMLOV only; (-) G19-4 only; (. . . ) G19-4 plus BMLOV. In Panel A, no IL-2 was added; in Panel B, incubations were performed with 1 ng/ml IL-2.

PTP1B = target: T1, PTP1B (Homo sapiens, UniProt P18031); test: Phosphotyrosine phosphatase PTP1B inhibition; format: biochemical
T1 construct: purchased Upstate Biotechnology, Lake Placid, N.Y
T1 sequence (P18031 1-435): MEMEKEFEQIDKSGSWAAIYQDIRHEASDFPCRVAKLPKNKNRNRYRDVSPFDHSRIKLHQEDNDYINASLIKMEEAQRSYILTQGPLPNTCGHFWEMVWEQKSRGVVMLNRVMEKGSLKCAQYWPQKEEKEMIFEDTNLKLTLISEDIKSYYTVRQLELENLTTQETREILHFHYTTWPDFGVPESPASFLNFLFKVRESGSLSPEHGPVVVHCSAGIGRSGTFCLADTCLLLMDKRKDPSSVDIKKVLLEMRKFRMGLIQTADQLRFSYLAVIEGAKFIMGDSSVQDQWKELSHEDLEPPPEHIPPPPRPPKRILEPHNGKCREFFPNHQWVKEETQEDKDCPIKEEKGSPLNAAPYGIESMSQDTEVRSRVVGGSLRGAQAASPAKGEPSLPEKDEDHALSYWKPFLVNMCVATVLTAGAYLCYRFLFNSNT

[6] = peripheral blood t cells, 24 h, 25 µM

[Na+].[O]=[V-]12([O][O]1)[O][O]2.c1cnc2c(c1)ccc1cccnc12 [pV(phen), sodium (1,10-phenanthroline) oxodiperoxovanadium (V)]
Max. % T/C (i.p. B16 murine melanoma; Expt. 799, 6 mg/kg/inj (MTD reached), qd 1→9, ip): 152% | maximum tolerated dose (MTD) (i.p. B16 murine melanoma; mouse, in vivo, ip): 6 mg/kg per injection | Max. % T/C ([1]; Expt. 330, 12 mg/kg/inj): 144% | Max. % T/C ([1]; Expt. 333, 12 mg/kg/inj (MTD reached)): 143% | cumulative MTD ([1]; last M109 experiment): 60 mg/kg

Cc1occc(=O)c1[O-].Cc1occc(=O)c1[O-].[O]=[V+2] [BMLOV, Bis(maltolato)oxovanadium (IV)]
concentration for similar inhibition relative to phosphotyrosine phosphatases (PP1): over 100 fold | inhibition of clonogenic growth [2]: inhibited only moderately | tyrosine phosphorylation response (HL-60 cells): showed a tyrosine phosphorylation response; also recorded: strong tyrosine phosphorylation was observed | [3H]cpm incorporation (Jurkat; 1 μM BMLOV): 149950 cpm | [3H]cpm incorporation (Jurkat; 5 μM BMLOV): 118720 cpm | [3H]cpm incorporation (Jurkat; 10 μM BMLOV): 98057 cpm | [3H]cpm incorporation (Jurkat; 25 μM BMLOV): 26511 cpm | sensitivity of proliferation to BMLOV, in words (Jurkat; 25 μM, 5 or 7 days): moderately sensitive; also recorded: substantially inhibited | [3H]cpm incorporation (THP-1; 1 μM BMLOV): 201670 cpm | [3H]cpm incorporation (THP-1; 5 μM BMLOV): 178290 cpm | [3H]cpm incorporation (THP-1; 10 μM BMLOV): 199993 cpm | [3H]cpm incorporation (THP-1; 25 μM BMLOV): 112209 cpm | sensitivity of proliferation to BMLOV, in words (THP-1; 25 μM, 5 or 7 days): only partial sensitivity; also recorded: showed an inhibition of growth | [3H]cpm incorporation ([3]; Donor #1, CD20 + CD40, 1 μM BMLOV): 3619 cpm | [3H]cpm incorporation ([3]; Donor #1, CD20 + CD40, 5 μM BMLOV): 3644 cpm | [3H]cpm incorporation ([3]; Donor #1, CD20 + CD40, 10 μM BMLOV): 3422 cpm | [3H]cpm incorporation ([3]; Donor #1, CD20 + CD40, 25 μM BMLOV): 2432 cpm | [3H]cpm incorporation ([3]; Donor #1, CD40 + IL4, 1 μM BMLOV): 31966 cpm | [3H]cpm incorporation ([3]; Donor #1, CD40 + IL4, 5 μM BMLOV): 33845 cpm | [3H]cpm incorporation ([3]; Donor #1, CD40 + IL4, 10 μM BMLOV): 31637 cpm | [3H]cpm incorporation ([3]; Donor #1, CD40 + IL4, 25 μM BMLOV): 24933 cpm | [3H]cpm incorporation ([3]; Donor #1, PMA + CD40, 1 μM BMLOV): 62643 cpm | [3H]cpm incorporation ([3]; Donor #1, PMA + CD40, 5 μM BMLOV): 58418 cpm | [3H]cpm incorporation ([3]; Donor #1, PMA + CD40, 10 μM BMLOV): 45330 cpm | [3H]cpm incorporation ([3]; Donor #1, PMA + CD40, 25 μM BMLOV): 25536 cpm | [3H]cpm incorporation ([3]; Donor #1, PMA + IL4, 1 μM BMLOV): 61415 cpm | [3H]cpm incorporation ([3]; Donor #1, PMA + IL4, 5 μM BMLOV): 48724 cpm | [3H]cpm incorporation ([3]; Donor #1, PMA + IL4, 10 μM BMLOV): 45278 cpm | [3H]cpm incorporation ([3]; Donor #1, PMA + IL4, 25 μM BMLOV): 14277 cpm | [3H]cpm incorporation ([3]; Donor #2, CD20 + CD40, 1 μM BMLOV): 4593 cpm | [3H]cpm incorporation ([3]; Donor #2, CD20 + CD40, 5 μM BMLOV): 5681 cpm | [3H]cpm incorporation ([3]; Donor #2, CD20 + CD40, 10 μM BMLOV): 5269 cpm | [3H]cpm incorporation ([3]; Donor #2, CD20 + CD40, 25 μM BMLOV): 856 cpm | [3H]cpm incorporation ([3]; Donor #2, CD40 + IL4, 1 μM BMLOV): 16597 cpm | [3H]cpm incorporation ([3]; Donor #2, CD40 + IL4, 5 μM BMLOV): 18824 cpm | [3H]cpm incorporation ([3]; Donor #2, CD40 + IL4, 10 μM BMLOV): 12662 cpm | [3H]cpm incorporation ([3]; Donor #2, CD40 + IL4, 25 μM BMLOV): 6013 cpm | [3H]cpm incorporation ([3]; Donor #2, PMA + CD40, 1 μM BMLOV): 49102 cpm | [3H]cpm incorporation ([3]; Donor #2, PMA + CD40, 5 μM BMLOV): 47624 cpm | [3H]cpm incorporation ([3]; Donor #2, PMA + CD40, 10 μM BMLOV): 29024 cpm | [3H]cpm incorporation ([3]; Donor #2, PMA + CD40, 25 μM BMLOV): 15671 cpm | [3H]cpm incorporation ([3]; Donor #2, PMA + IL4, 1 μM BMLOV): 53642 cpm | [3H]cpm incorporation ([3]; Donor #2, PMA + IL4, 5 μM BMLOV): 41892 cpm | [3H]cpm incorporation ([3]; Donor #2, PMA + IL4, 10 μM BMLOV): 20313 cpm | [3H]cpm incorporation ([3]; Donor #2, PMA + IL4, 25 μM BMLOV): 2730 cpm | induction of tyrosine phosphorylation [4]: highly responsive | IL-2Rα expression without anti-CD3 stimulation ([5]; BMLOV alone or in combination with IL-2): did not induce IL-2Rα expression | enhancement of IL-2Rα expression over anti-CD3 and IL-2 [5, 6]: 3 fold | increase of IL-2Rα expression over anti-CD3 stimulation alone [5, 6]: 1.7 fold | IC50 (PTP1B): ~25 nM | IC50 (PTP1B; Table 1, phosphorylated myelin basic protein substrate): 26 nM | IC50 (PTP1B; Table 8): 26 nM
